Data as given in patent US20260335293A1, “USE OF NOVEL COMPOUND FOR TREATING INTRACTABLE DISEASES” (YJ CERAPEUTICS INC., priority 2023, published 2026).

How the values were obtained:
Assay type in all cases: in vivo, Sprague-Dawley rats
microglia (OX-42) = test: Microglial activation in spinal cord of SNI model, OX-42 staining; details: spinal cord L4-L5, 4 weeks after nerve injury
Procedure: (§1) To be used as a peripheral nerve injury animal model, a sciatic nerve injury (SNI) model was prepared (FIG. 1C). Specifically, 200 to 220 g of male adult Sprague-Dawley rats were anesthetized by intraperitoneal injection of chloral hydrate (500 mg/kg), and then three terminal branches (tibial, common peroneal, and sural nerves) of the right sciatic nerve were approached, and the tibia nerve and the peroneal nerve were tightly ligated with 4-0 silk, and neurectomy was performed at a distal 3 mm position of the ligation site. At this time, a Sham group was a group that exposed only the sciatic nerve without damage.
(§2) To analyze the activation of microglia in the spinal cord, which were known to play an important role in the induction/persistence of neuropathic pain, 4 weeks after nerve injury in the SNI animal model, the spinal cord of 4 and 5 lumbar vertebrae was stained with OX-42 to confirm changes in cell shape and intensity. […] The supernatant was transferred to a new microcentrifuge, the protein concentration was measured using a BCA kit, and samples for Western blot were prepared by adding a 1× sample buffer and boiling for 5 minutes. […]

p38MAPK = p38MAPK phosphorylation in spinal cord of SNI model, Western blot
Procedure: as §1, §2

mTOR pathway = mTOR pathway in SNI model, Western blot; details: 4 weeks after nerve injury
Procedure: FIG. 5B is a diagram showing results of analyzing the expression of factors associated with a mTOR signaling pathway in an inflammation-inhibiting mechanism in an SNI animal model by Western blot.
(§3) To determine through which signaling pathway YJ102 inhibited a neuroinflammatory response, there was analyzed increased expression and activation of histone demethylase JMJD3 and expression changes of factors associated with JAK/STAT3 pathway, mTOR pathway, and TRPM7-mediated pathway, which were known as important regulatory mechanisms and epigenetic regulators mediating the neuroinflammatory response, in the tissues of the SNI animal model 4 weeks after nerve injury.

TRPM7 = TRPM7 expression in SNI model, Western blot; details: 4 weeks after nerve injury
Procedure: FIG. 5C is a diagram showing results of analyzing the expression of TRMP7 in an SNI animal model by Western blot.
as §3

bladder wall = test: Bladder hypertrophy (bladder wall thickness, H&E) in SCI model; details: 5 mg/kg i.p., day 1 after SCI
[1] = test system: urothelium (TUNEL-positive cells); test: Urothelial cell apoptosis in SCI model, TUNEL staining; details: day 3 after SCI; vs Vehicle
p75 = p75 expression in urothelium of SCI model, RT-PCR and Western blot; details: after SCI
[2] = test system: inflammatory cytokines and chemokines in bladder tissue; test: Inflammatory factor expression in bladder of SCI model, RT-PCR and Western blot; details: bladder after SCI
Procedure: In order to confirm the effect of YJ102 (Chemical Formula 1), a compound of the present disclosure, on urinary disturbances caused by spinal cord injury, immediately after preparing the traumatic spinal cord injury (SCI) model (FIG. 1A) prepared in Example 1 above, YJ102 was dissolved in DMSO, methyl pyrrolidinone, and water (1:1.5:1) and administered intraperitoneally at 5 mg/kg, and then intraperitoneally administered at 24-hour intervals for 7 days from the next day. Thereafter, the effect of improving bladder functions was analyzed through a residual urine volume test and a urinary bladder function score (UBFS). At this time, a Vehicle group was administered with the same amount of a solution of DMSO, methyl pyrrolidinone, and water. Specifically, in order to determine the amount of urine remaining in the bladder after spinal cord injury, bladder extrusion was performed twice a day by applying pressure to the central bottom portion of the lower abdomen using the index and middle fingers to empty the bladder, and the expelled urine was collected in a catheter and its volume was recorded. In addition, the UBFS was assessed daily using a 0-4 point UBFS (0=total loss of function (manual bladder extrusion 3 times a day, bloody urine), 1=partial restoration of UBF (manual extrusion 2 times a day, bloody urine), 2=partial restoration of UBF (partial/complete release of sphincter spasm, manual extrusion once a day, persistently bloody urine), 3=high restoration (manual extrusion once a day, no bloody urine), and 4=normal UBF) as in the reference (Zeng et al., Spinal Cord (2017) 55:834-839).
To confirm the effect of YJ102 on the expression of inflammatory factors in the bladder after spinal cord injury, the expression of inflammatory cytokines and chemokines, COX-2, iNOS, IL-6, IL-1β, MIP-1α, MIP-1β, MIP-2a, and Gro-α in bladder tissue was confirmed by RT-PCR analysis and Western blot analysis using the primers in Table 2 above. In addition, even in the Raw 264.7 cell line, the expression was verified by RT-PCR analysis.

With `CCc1ccc(N(C(=O)COC)c2nc3cc(Cl)ccc3o2)cc1` [YJ102] the “microglia activation changes (OX-42 intensity)” value (microglia (OX-42)) was “significantly reduced”, the “amount of p-p38MAPK” value (p38MAPK) was “significantly reduced” and the “activity of S6” value (mTOR pathway) was “inhibiting the activity”. For the same molecule, the “activity of p70S6kinase” value (mTOR pathway) was “inhibiting the activity”, the “expression of TRPM7” value (TRPM7) was “inhibited the expression” and the “thickness of lamina propria” value (bladder wall) was “significantly reduced”. For the same molecule, the “thickness of muscle layer” value (bladder wall) was “significantly reduced”, the “thickness of urothelium layer” value (bladder wall) was “significantly reduced” and the “number of TUNEL-positive cells in the urothelium” value [1] was “significantly reduced”. The p75 expression (p75; RT-PCR (mRNA)) was “significantly reduced”, the p75 expression (p75; Western blot (protein)) was “significantly reduced” and the “expression of COX-2” value [2] was “significantly reduced”. The “expression of Gro-α” value [2] was “significantly reduced”, the “expression of IL-1β” value [2] was “significantly reduced” and the “expression of IL-6” value [2] was “significantly reduced”. The “expression of MIP-1B” value [2] was “significantly reduced”, the “expression of MIP-1 a” value [2] was “significantly reduced” and the “expression of MIP-2a” value [2] was “significantly reduced”. The “expression of iNOS” value [2] was “significantly reduced”.
